Key:
c-kit kinase = molecular target: T1, c-kit kinase (Homo sapiens, UniProt P10721); experiment: c-Kit biochemical assay, AlphaScreen, 10 μM ATP; details: c-kit biochemical inhibitory activity; read-out: Biochemical activity (IC50 μM) Kit
T1 construct: The c-kit (or kinase domain thereof) is an active kinase in AlphaScreen; poly-Histidine tag (in-house protein only) (cleaved yes); host or cells: E. coli BL21(DE3)RIL, co-expressed with PTP1B
Method in brief: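 His-tagged c-Kit expressed in E. coli with co-expressed PTP1B (dephosphorylated), tag removed; 0.1 ng per reaction with biotinylated-peptide substrate in 50 mM HEPES pH 7.2, 5 mM MgCl2, 5 mM MnCl2, 5% DMSO, 10 μM ATP, 1 h at room temperature. Phosphorylation detected by AlphaScreen (streptavidin donor, PY20 acceptor beads); IC50 from 8-point 1:3 dilution series.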

c-kit mutant D816V = molecular target: T2, c-kit mutant D816V (Homo sapiens, UniProt P10721, D816V/DEL694-753); experiment: c-Kit mutant D816V biochemical assay, AlphaScreen; details: c-kit D816V biochemical inhibitory activity; read-out: Biochemical activity (IC50 μM) Kit D816V
T2 construct: residues 551-934, kinase insertion domain residues 694-753 deleted; 6x-histidine (N); made in house; host or cells: E. coli Arctic Express (DE3) RIL (Stratagene)
T2 sequence (P10721 with tags, fused parts or gaps DEL694-753/D816V): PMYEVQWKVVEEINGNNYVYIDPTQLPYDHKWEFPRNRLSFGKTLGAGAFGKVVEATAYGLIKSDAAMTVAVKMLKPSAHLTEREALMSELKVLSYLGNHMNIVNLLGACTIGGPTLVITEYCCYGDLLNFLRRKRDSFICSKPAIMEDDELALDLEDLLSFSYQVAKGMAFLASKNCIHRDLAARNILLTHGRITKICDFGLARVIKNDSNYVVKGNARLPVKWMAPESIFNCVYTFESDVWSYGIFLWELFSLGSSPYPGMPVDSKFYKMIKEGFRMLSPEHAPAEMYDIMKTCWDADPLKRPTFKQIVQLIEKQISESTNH
Method in brief: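 Eight-point, threefold compound series incubated 30 min at room temperature with E. coli-produced D816V kinase, 10 μM ATP, Mg2+/Mn2+ HEPES buffer pH 7.2 and 5% DMSO. After EDTA stop, streptavidin and anti-phosphotyrosine (PY20) AlphaScreen beads gave the read-out, and IC50 was fitted from the concentration–signal curve.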

T1 sequence (P10721 26-976): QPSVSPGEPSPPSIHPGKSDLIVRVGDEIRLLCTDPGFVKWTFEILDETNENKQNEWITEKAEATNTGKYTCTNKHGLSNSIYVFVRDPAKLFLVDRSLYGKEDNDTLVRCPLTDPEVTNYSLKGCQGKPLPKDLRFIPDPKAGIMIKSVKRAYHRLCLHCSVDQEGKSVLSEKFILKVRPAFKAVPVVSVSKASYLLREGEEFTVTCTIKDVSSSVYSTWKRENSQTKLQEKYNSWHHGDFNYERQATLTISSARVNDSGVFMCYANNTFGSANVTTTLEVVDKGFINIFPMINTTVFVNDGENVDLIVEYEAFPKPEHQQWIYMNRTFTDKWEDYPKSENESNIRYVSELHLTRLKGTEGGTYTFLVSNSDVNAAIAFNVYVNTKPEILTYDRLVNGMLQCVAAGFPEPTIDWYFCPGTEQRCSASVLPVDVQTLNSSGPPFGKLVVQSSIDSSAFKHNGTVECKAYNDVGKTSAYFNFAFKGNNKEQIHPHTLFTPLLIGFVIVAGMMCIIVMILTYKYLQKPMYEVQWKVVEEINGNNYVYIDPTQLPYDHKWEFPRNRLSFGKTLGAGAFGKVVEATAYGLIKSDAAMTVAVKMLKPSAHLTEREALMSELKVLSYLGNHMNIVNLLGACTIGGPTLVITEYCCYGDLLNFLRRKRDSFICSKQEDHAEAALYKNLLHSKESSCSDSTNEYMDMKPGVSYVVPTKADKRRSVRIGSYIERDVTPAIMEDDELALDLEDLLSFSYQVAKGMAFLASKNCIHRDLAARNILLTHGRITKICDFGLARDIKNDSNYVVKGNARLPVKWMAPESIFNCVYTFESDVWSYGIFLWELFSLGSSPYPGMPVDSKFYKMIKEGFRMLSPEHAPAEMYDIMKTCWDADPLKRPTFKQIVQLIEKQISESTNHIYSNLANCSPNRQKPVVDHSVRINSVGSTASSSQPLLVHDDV

Structure (SMILES) | IC50 (c-kit kinase) [µM] | IC50 (c-kit mutant D816V) [µM]
O=S(=O)(Nc1ccc(-c2ncnc3[nH]c(-c4ccc(F)cc4)cc23)cc1)C1CC1 [P-0420, N-[4-[6-(4-fluorophenyl)-7H-pyrrolo[2,3-d]pyrimidin-4-yl]phenyl]cyclopropanesulfonamide] | 10 to 200 | 0.0001 to 1
COc1cc(-c2cc3c(N4CCN(C(=O)NCc5ccc(F)cc5)CC4)ncnc3[nH]2)ccn1 [P-0104, N-[(4-fluorophenyl)methyl]-4-[6-(2-methoxy-4-pyridyl)-7H-pyrrolo[2,3-d]pyrimidin-4-yl]piperazine-1-carboxamide] | 10 to 200 | 1 to 10
Cc1ccc2sc(S(=O)(=O)Nc3ccc(-c4ncnc5[nH]c(C)cc45)cc3)cc2c1 [P-0308, 5-methyl-N-[4-(6-methyl-7H-pyrrolo[2,3-d]pyrimidin-4-yl)phenyl]benzothiophene-2-sulfonamide] | 10 to 200 | 1 to 10
C[C@H](NC(=O)N1CCN(c2ncnc3[nH]c(-c4ccc(F)cc4)cc23)CC1(C)C)c1cccc(F)c1 [P-0005, N-[(1S)-1-(3-fluorophenyl)ethyl]-4-[6-(4-fluorophenyl)-7H-pyrrolo[2,3-d]pyrimidin-4-yl]-2,2-dimethyl-piperazine-1-carboxamide] | 1 to 10 | 0.0001 to 1
C[C@@H]1CN(c2ncnc3[nH]c(-c4ccncc4)cc23)CCN1C(=O)Nc1ccc(Cl)cc1 [P-0065, (2R)-N-(4-chlorophenyl)-2-methyl-4-[6-(4-pyridyl)-7H-pyrrolo[2,3-d]pyrimidin-4-yl]piperazine-1-carboxamide] | 0.0001 to 1 | 0.0001 to 1
COc1cccc([C@H](C)NC(=O)N2CCN(c3ncnc4cc(N5CCC(F)(F)CC5)sc34)CC2(C)C)c1 [P-0680, 4-[6-(4,4-difluoro-1-piperidyl)thieno[3,2-d]pyrimidin-4-yl]-N-[(1S)-1-(3-methoxyphenyl)ethyl]-2,2-dimethyl-piperazine-1-carboxamide] | 1 to 10 | 0.0001 to 1
C[C@@H]1CN(c2ncnc3[nH]c(-c4ccncc4)cc23)CCN1C(=O)NCc1ccc(Cl)cc1 [P-0064, (2R)-N-[(4-chlorophenyl)methyl]-2-methyl-4-[6-(4-pyridyl)-7H-pyrrolo[2,3-d]pyrimidin-4-yl]piperazine-1-carboxamide] | 0.0001 to 1 | 0.0001 to 1
CCOc1ccc(NC(=O)N2CCN(c3ncnc4[nH]c(C)cc34)CC2)cc1 [P-0181, N-(4-ethoxyphenyl)-4-(6-methyl-7H-pyrrolo[2,3-d]pyrimidin-4-yl)piperazine-1-carboxamide] | 10 to 200 | 10 to 200
Cc1nn(C)cc1-c1cc2ncnc(N3CCN(C(=O)N[C@@H](C)c4ccc(F)cc4)[C@H](C)C3)c2s1 [P-0599, (2R)-4-[6-(1,3-dimethylpyrazol-4-yl)thieno[3,2-d]pyrimidin-4-yl]-N-[(1S)-1-(4-fluorophenyl)ethyl]-2-methyl-piperazine-1-carboxamide] | 10 to 200 | 0.0001 to 1
CC(C)(C)OC(=O)N1CC=C(c2cc3ncnc(N4CCN(C(=O)NCc5ccc(F)cc5)CC4)c3s2)CC1 [P-0616, tert-butyl 4-[4-[4-[(4-fluorophenyl)methylcarbamoyl]piperazin-1-yl]thieno[3,2-d]pyrimidin-6-yl]-3,6-dihydro-2H-pyridine-1-carboxylate] | 1 to 10 | 0.0001 to 1
COc1cc2ncnc(-c3ccc(S(=O)(=O)Nc4ccc(Cl)cc4)cc3F)c2cc1OCCCN1CCOCC1 [P-0247, N-(4-chlorophenyl)-3-fluoro-4-[7-methoxy-6-(3-morpholinopropoxy)quinazolin-4-yl]benzenesulfonamide] | 1 to 10 | 0.0001 to 1
Cc1cc2c(-c3ccc(NS(=O)(=O)c4sc(C)nc4C)cc3)ncnc2[nH]1 [P-0300, 2,4-dimethyl-N-[4-(6-methyl-7H-pyrrolo[2,3-d]pyrimidin-4-yl)phenyl]thiazole-5-sulfonamide] | 10 to 200 | 1 to 10
COc1cc(-c2cc3c(N4CCN(C(=O)N[C@@H](C)c5ccc(Cl)cc5)C(C)(C)C4)ncnc3[nH]2)ccn1 [P-0710, N-[(1S)-1-(4-chlorophenyl)ethyl]-4-[6-(2-methoxy-4-pyridyl)-7H-pyrrolo[2,3-d]pyrimidin-4-yl]-2,2-dimethyl-piperazine-1-carboxamide] | 10 to 200 | 0.0001 to 1
CC(C)(NC(=O)N1CC=C(c2ncnc3cc(-c4ccc(F)cc4)sc23)CC1)c1ccccc1 [P-0679, 4-[6-(4-fluorophenyl)thieno[3,2-d]pyrimidin-4-yl]-N-(1-methyl-1-phenyl-ethyl)-3,6-dihydro-2H-pyridine-1-carboxamide] | 1 to 10 | 0.0001 to 1
C[C@H](NC(=O)N1CCN(c2ncnc3[nH]c(-c4ccc(C#N)cc4)cc23)CC1(C)C)c1cccc(Cl)c1 [P-0689, N-[(1S)-1-(3-chlorophenyl)ethyl]-4-[6-(4-cyanophenyl)-7H-pyrrolo[2,3-d]pyrimidin-4-yl]-2,2-dimethyl-piperazine-1-carboxamide] | 0.0001 to 1 | 0.0001 to 1
COc1ccc(NC(=O)N2CCN(c3ncnc4[nH]c(-c5ccncc5)cc34)C[C@H]2C)cn1 [P-0057, (2R)-N-(6-methoxy-3-pyridyl)-2-methyl-4-[6-(4-pyridyl)-7H-pyrrolo[2,3-d]pyrimidin-4-yl]piperazine-1-carboxamide] | 1 to 10 | 0.0001 to 1
O=S(=O)(Nc1ccc(-c2ncnc3[nH]c(Cl)cc23)cc1)c1ccc(OC(F)F)cc1 [P-0655, N-[4-(6-chloro-7H-pyrrolo[2,3-d]pyrimidin-4-yl)phenyl]-4-(difluoromethoxy)benzenesulfonamide] | 1 to 10 | 1 to 10
COc1cc(-c2cc3c(N4CCN(C(=O)N[C@@H](C)c5ccc(F)cc5)C(C)(C)C4)ncnc3[nH]2)ccn1 [P-0643] | 1 to 10 | 0.0001 to 1
COc1cc2c(-c3ccc(NS(=O)(=O)c4ccc(Cl)cc4)cc3F)ncnc2cc1OCCCN1CCCCC1 [P-0256, 4-chloro-N-[3-fluoro-4-[6-methoxy-7-[3-(1-piperidyl)propoxy]quinazolin-4-yl]phenyl]benzenesulfonamide] | 0.0001 to 1 | 0.0001 to 1
COc1ccc([C@H](C)NC(=O)N2CCN(c3ncnc4[nH]c(-c5ccc(F)cc5)cc34)C[C@H]2C)cc1 [P-0018, (2R)-4-[6-(4-fluorophenyl)-7H-pyrrolo[2,3-d]pyrimidin-4-yl]-N-[(1S)-1-(4-methoxyphenyl)ethyl]-2-methyl-piperazine-1-carboxamide] | 1 to 10 | 0.0001 to 1
CS(=O)(=O)Nc1cccc(-c2ncnc3[nH]c(-c4ccc(F)cc4)cc23)c1 [P-0414, N-[3-[6-(4-fluorophenyl)-7H-pyrrolo[2,3-d]pyrimidin-4-yl]phenyl]methanesulfonamide] | 1 to 10 | 1 to 10
C[C@H](NC(=O)N1CCN(c2ncnc3[nH]c(-c4ccc(C#N)cc4)cc23)CC1(C)C)c1cccc(F)c1 [P-0688, 4-[6-(4-cyanophenyl)-7H-pyrrolo[2,3-d]pyrimidin-4-yl]-N-[(1S)-1-(3-fluorophenyl)ethyl]-2,2-dimethyl-piperazine-1-carboxamide] | 1 to 10 | 0.0001 to 1
COc1cccc([C@H](C)NC(=O)N2CC=C(c3ncnc4cc(-c5ccc(F)cc5)sc34)CC2)c1 [P-0581, 4-[6-(4-fluorophenyl)thieno[3,2-d]pyrimidin-4-yl]-N-[(1S)-1-(3-methoxyphenyl)ethyl]-3,6-dihydro-2H-pyridine-1-carboxamide] | 1 to 10 | 0.0001 to 1

— patent US10227357B2, “Compounds and methods for kinase modulation, and indications therefor” (Plexxikon Inc., priority 2012, dated 2019)
